Paper PMC8027839 (Scientific Reports, 2021)
Entries after “also recorded” stand apart in the source; their conditions may differ. Read-outs that look alike come from different tables or passages of the source.

Columns and labels:
[1] = biological target: T1, SapM (Mycobacterium tuberculosis, UniProt O53361); assay: biochemical; assay type: biochemical; settings: for remaining activity at 100 µM: 0.5 h, read-out: %SA (percentage specific activity of SapM); for inhibition at 100 µM: read-out: inhibition of SapM activity (reduction in SA)
T1 construct: made in house; host or cells: Escherichia coli C41 (DE3)
T1 sequence (O53361 44-299): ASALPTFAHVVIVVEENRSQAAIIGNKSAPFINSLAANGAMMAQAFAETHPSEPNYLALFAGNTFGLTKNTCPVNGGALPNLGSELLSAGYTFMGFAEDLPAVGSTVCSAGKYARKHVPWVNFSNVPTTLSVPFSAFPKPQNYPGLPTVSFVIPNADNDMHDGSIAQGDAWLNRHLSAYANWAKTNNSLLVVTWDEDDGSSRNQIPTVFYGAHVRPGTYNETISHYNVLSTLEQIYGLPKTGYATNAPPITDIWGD

[2] = biological target: MptpA (Mycobacterium tuberculosis, UniProt P9WIA1); assay: biochemical; settings: pH 6
Chain of MptpA (P9WIA1 whole entry): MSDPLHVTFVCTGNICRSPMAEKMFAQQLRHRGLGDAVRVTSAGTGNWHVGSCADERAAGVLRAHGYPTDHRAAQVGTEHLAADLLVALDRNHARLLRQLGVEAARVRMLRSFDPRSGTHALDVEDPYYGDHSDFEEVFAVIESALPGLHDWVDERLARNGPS

[3] = biological target: MptpB (Mycobacterium tuberculosis, UniProt I6WXK4); assay: biochemical; settings: pH 6
Chain of MptpB (I6WXK4 whole entry, looked up): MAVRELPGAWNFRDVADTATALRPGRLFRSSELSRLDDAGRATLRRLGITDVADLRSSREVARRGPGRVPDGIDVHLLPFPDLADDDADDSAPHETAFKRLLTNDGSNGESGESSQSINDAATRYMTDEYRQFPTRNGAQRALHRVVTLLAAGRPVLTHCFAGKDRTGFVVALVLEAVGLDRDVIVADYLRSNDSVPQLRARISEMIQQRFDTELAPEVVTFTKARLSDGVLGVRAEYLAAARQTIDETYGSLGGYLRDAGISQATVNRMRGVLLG

[4] = Compound precipitation in enzyme assays; assay type: physicochemical; settings: SapM dose-response assay
[5] = biological target: T2, PTP1B (Homo sapiens, UniProt P18031); assay: hPTP1B inhibition, pNPP assay; assay type: biochemical; settings: pNPP assay, pH 5.5; read-out: IC50 PTP1B
T2 sequence (P18031 1-435): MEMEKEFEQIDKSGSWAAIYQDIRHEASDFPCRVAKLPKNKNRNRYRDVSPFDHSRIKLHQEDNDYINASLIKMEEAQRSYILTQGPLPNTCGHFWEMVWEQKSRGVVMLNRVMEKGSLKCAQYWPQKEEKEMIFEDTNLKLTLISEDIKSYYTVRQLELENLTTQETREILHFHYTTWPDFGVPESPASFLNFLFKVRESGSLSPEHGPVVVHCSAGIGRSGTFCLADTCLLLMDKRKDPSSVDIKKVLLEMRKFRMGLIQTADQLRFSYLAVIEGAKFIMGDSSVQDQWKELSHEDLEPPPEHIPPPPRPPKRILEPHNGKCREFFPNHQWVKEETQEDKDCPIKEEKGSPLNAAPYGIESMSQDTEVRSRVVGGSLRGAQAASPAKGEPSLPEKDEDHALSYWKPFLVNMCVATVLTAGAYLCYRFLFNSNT

[6] = biological target: VHR (Homo sapiens, UniProt P51452); assay: hVHR inhibition, pNPP assay; assay type: biochemical; settings: pNPP assay, pH 5.5; read-out: IC50 VHR
Chain of VHR (P51452 whole entry): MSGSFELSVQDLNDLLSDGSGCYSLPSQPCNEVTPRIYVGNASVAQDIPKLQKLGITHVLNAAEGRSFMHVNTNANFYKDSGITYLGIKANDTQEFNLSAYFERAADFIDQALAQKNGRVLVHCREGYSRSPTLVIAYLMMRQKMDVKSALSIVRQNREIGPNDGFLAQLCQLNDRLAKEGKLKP

[7] = biological target: T1, SapM; assay: Type of inhibition of SapM, Lineweaver-Burk plots; assay type: biochemical
Excerpt: To determine the type of inhibition different inhibitor concentrations were selected to yield around 30% and 75% inhibition for each concentration of pNPP. This ensures sufficient signal to obtain accurate data while allowing a significant inhibition effect. Velocity (V) was plotted as a function of pNPP concentration and fit in a Lineweaver–Burk plot (double-reciprocal) using GraphPad Prism 8.41. All assays were done in 96-well microplates and performed in triplicate in at least two independent experiments.

[8] = biological target: T1, SapM; assay: Microscale thermophoresis of SapM binding
Protocol: Microscale thermophoresis (MST) was used to study the direct binding interaction of SapM with three compounds 1, 2 and 13. SapM was labelled with NTA-647nm dye which attaches to the 6-histidine tag. 100 nM NTA-647 was incubated with 200 nM SapM for 1-hour at 4 °C and then centrifuged at 20,000 rcf for 20 minutes at 4 °C in 20 mM HEPES, 200 mM NaCl pH 7.0. 10 mM compound was diluted to 500 μM in the same buffer. Binding checks were carried out with labelled SapM (5 nM) with and without 250 nM compound with LED power of 20% and a medium MST power in a Monolith Pico instrument and using standard capillaries. Binding analysis was performed with a doubling serial dilution from 250 nM with 16 dilutions and a constant concentration of 5 nM labelled SapM.

[9] = biological target: T1, SapM; set-up: method as in PMID 31312014; settings: previously reported; cited from earlier work
[10] = compounds at 100 µM, relative to pNPP DMSO control

NC(Cc1cc(O)c(O)cc1O)C(=O)O (racemic) [Compound 20, 6-Hydroxy-DL-DOPA]
inhibition of SapM activity (reduction in SA) ([1]; compounds at 100 µM): ~ 30%
%SA (percentage specific activity of SapM) [1, 10]: 71.7 ± 3.4%

CCCCCCCCCCCC(=O)c1c(O)c(C(=O)CCCCCCCCCCC)c(O)c(C2CC(c3ccc(O)cc3)Oc3cc(O)ccc32)c1O (centres unmarked) [Compound 3, YM-26734]
%SA (percentage specific activity of SapM) [1]: 0%
IC50 [1]: 19.8 ± 1.1 µM
effect on SapM enzyme activity [1]: completely abolished the enzymatic activity
IC50 [2]: > 100 µM
IC50 [3]: > 100 µM

N#Cc1c2nc3ccccc3nc2n2ccc(NC(=O)c3cccs3)cc12 [Compound 4, HI-TOPK-32]
%SA (percentage specific activity of SapM) [1]: 20.5 ± 3.7%
concentration at which compound precipitates [4]: > 100 µM

C[C@H](O)[C@H](O)[C@H]1CNc2[nH]c(N)nc(=O)c2N1.Cl.Cl [Compound 5, (6R)-BH4, reference compound]
%SA (percentage specific activity of SapM) [1, 10]: 33.3 ± 0.3%
IC50 ([1]; pNPP assay, dose-response): 73.9 ± 1.2 µM

O=[N+]([O-])c1ccc(Oc2ccc(Br)cc2)c(C(O)P(=O)(O)O)c1 (centres unmarked) [Compound 6, RWJ-60475]
%SA (percentage specific activity of SapM) [1]: 46.6 ± 0.9%
IC50 [1]: 41.9 ± 1.1 µM
IC50 [2]: > 100 µM
IC50 [3]: > 100 µM

N#CC(C#N)=Cc1ccc(O)c(O)c1 [Compound 7, Tyrphostin 23]
remaining activity at 100 µM [1, 10]: 73.5 ± 3.1%
inhibition at 100 µM ([1]; compounds at 100 µM): 30 to 50%

CC(C)(C)c1cc(/C=C(\C#N)C(N)=S)cc(C(C)(C)C)c1O [Compound 8, Tyrphostin AG 879]
remaining activity at 100 µM [1, 10]: 78.7 ± 6.6%
inhibition at 100 µM ([1]; compounds at 100 µM): < 21%

N#CC(C#N)=C(N)/C(C#N)=C/c1ccc(O)cc1 [Compound 9, Tyrphostin AG 112]
inhibition of SapM activity (reduction in SA) ([1]; compounds at 100 µM): less than 21%
%SA (percentage specific activity of SapM) [1, 10]: 88.7 ± 1.7%

N#C/C(=C\c1ccc(O)c(O)c1)C(=O)c1ccc(O)c(O)c1 [Compound 11, Tyrphostin AG 538]
%SA (percentage specific activity of SapM) [1, 10]: 100.2 ± 0.3%

N#CC(C#N)=Cc1ccc(O)cc1 [Compound 12, Tyrphostin 8]
%SA (percentage specific activity of SapM) [1]: 104.2 ± 4.2%
inhibition of SapM activity (reduction in SA) ([1]; 100 µM): less than 21%

N#CC(C#N)=C(N)/C(C#N)=C/c1cc(O)c(O)c(O)c1 [Compound 13, Tyrphostin AG 183]
effect on SapM enzyme activity ([1]; compounds at 100 µM): completely abolished enzyme activity; also recorded: abolished enzyme activity completely
%SA (percentage specific activity of SapM) [1, 10]: 0%
IC50 ([1]; pNPP assay, dose-response): 8.2 ± 1 µM
IC50 ([2]; pNPP assay): 16.7 ± 1 µM
IC50 ([3]; pNPP assay): > 100 µM
IC50 [5]: > 100 µM
IC50 [6]: > 100 µM
mechanism of inhibition of SapM [7]: uncompetitive inhibitors
binding to SapM by MST [8]: confirmed
EC50 ([8]; Bivalent fit EC50 (1), MST titration, tighter binding mode): 0.59 µM

N#CC(C#N)=Cc1cc(O)c(O)c(O)c1 [Compound 14, Tyrphostin AG 82]
remaining activity at 100 µM [1, 10]: 0%
effect on SapM enzyme activity ([1]; compounds at 100 µM): completely abolished enzyme activity; also recorded: abolished enzyme activity completely
IC50 ([1]; pNPP assay, dose-response): 14.5 ± 1 µM
IC50 ([2]; pNPP assay): 23.7 ± 1.1 µM
IC50 ([3]; pNPP assay): > 100 µM
mechanism of inhibition of SapM [7]: uncompetitive inhibitors

N#C/C(=C\c1ccc(O)c(O)c1)C(N)=O [Compound 16, Tyrphostin AG 99]
%SA (percentage specific activity of SapM) [1, 10]: 58.3 ± 0.6%

N#CC(=Cc1ccc2[nH]ccc2c1)C(N)=C(C#N)C#N [Compound 18, Tyrphostin AG 370]
%SA (percentage specific activity of SapM) [1, 10]: 94.6 ± 3.1%

N#CC(C#N)=Cc1ccc([N+](=O)[O-])c(O)c1 [Compound 19, Tyrphostin AG 126]
%SA (percentage specific activity of SapM) [1, 10]: 99.0 ± 5.5%

CC(C)=CC[C@@H](O)C1=CC(=O)c2c(O)ccc(O)c2C1=O [Compound 21, Shikonin]
remaining activity at 100 µM [1, 10]: 88.9 ± 4.3%

O=c1cc(-c2ccc(O)cc2)oc2cc(O)cc(O)c12 [Compound 22, Apigenin]
remaining activity at 100 µM [1, 10]: 103 ± 1.1%

O=c1c(-c2ccc(O)cc2)coc2cc(O)ccc12 [Compound 23, Daidzein]
remaining activity at 100 µM [1, 10]: 108 ± 17.2%

O=c1c(-c2ccc(O)cc2)coc2cc(O)cc(O)c12 [Compound 24, Genistein]
remaining activity at 100 µM [1, 10]: 84.1 ± 6.4%

Cc1cc(O)c2c(c1)C(=O)c1cc(O)cc(O)c1C2=O [Compound 25, Emodin]
remaining activity at 100 µM [1, 10]: 68.6 ± 7.2%
inhibition at 100 µM ([1]; compounds at 100 µM): ~30%

O=c1c(O)c(-c2cc(O)c(O)c(O)c2)oc2cc(O)cc(O)c12 [Compound 26, Myricetin]
remaining activity at 100 µM [1, 10]: 84 ± 6.2%
effect on SapM enzyme activity ([1]; compounds at 100 µM): none or poor activity

N[C@H](C(=O)O)[C@H](O)c1ccc(O)c(O)c1 [Compound 27, L-DOPS]
remaining activity at 100 µM [1, 10]: 85.9 ± 4.2%

O.O.O=c1c(O)c(-c2ccc(O)c(O)c2)oc2cc(O)cc(O)c12 [Compound 28, Quercetin dehydrate]
effect on SapM enzyme activity ([1]; compounds at 100 µM): none or poor activity
%SA (percentage specific activity of SapM) [1, 10]: 78.9 ± 9.2%

O=C(O)c1cc(O)c(O)c(O)c1 [Compound 29, Gallic acid]
remaining activity at 100 µM [1, 10]: 30.7 ± 3.6%
inhibition at 100 µM ([1]; compounds at 100 µM): ~70%
IC50 ([1]; pNPP assay, dose-response): 63 ± 1.5 µM
IC50 ([2]; pNPP assay): > 100 µM
IC50 ([3]; pNPP assay): > 100 µM

Oc1cc(O)c2c(c1)O[C@@H](c1cc(O)c(O)c(O)c1)[C@H](O)C2 [Compound 30, (−)-Gallocatechin]
remaining activity at 100 µM [1, 10]: 60.4 ± 6.4%
inhibition at 100 µM ([1]; compounds at 100 µM): ~40%

Oc1cc(O)c2c(c1)O[C@H](c1ccc(O)c(O)c1)[C@H](O)[C@H]2c1c(O)cc(O)c2c1O[C@H](c1ccc(O)c(O)c1)[C@H](O)C2 [Compound 31, Procyanidin B2]
remaining activity at 100 µM [1, 10]: 100 ± 14.5%

Oc1cc(O)c2c(c1)O[C@H](c1ccc(O)c(O)c1)[C@H](O)C2 [Compound 32, (−)-Epicatechin]
remaining activity at 100 µM [1, 10]: 97.9 ± 7.2%

Oc1cc(O)c2c(c1)O[C@H](c1ccc(O)c(O)c1)[C@@H](O)C2 [Compound 33, (+)-Catechin]
%SA (percentage specific activity of SapM) [1, 10]: 95.9 ± 12.3%

O=C1O[C@H]([C@@H](O)CO)C(O)=C1O [L-AC, L-ascorbic acid]
IC50 [9]: > 200 µM

Tyrphostin AG 114 [Compound 15]
%SA (percentage specific activity of SapM) [1, 10]: 48.6 ± 1.1%
IC50 ([1]; pNPP assay, dose-response): 78.4 ± 2.7 µM

Tyrphostin AG 974 [Compound 17]
%SA (percentage specific activity of SapM) [1, 10]: 71.9 ± 1.4%
